# Assays:
# [1] = biological target: RsiGRr(27-106) (L52M-I69M), selenomethionine substituted (Rubrobacter radiotolerans); test: crystal structure; apo RsiGRr crystal form 1; 0.1 M imidazole pH 8.0, 12% isopropyl alcohol, 0.1 M MgCl2; selenomethionine SAD, 1.86 Å; six molecules in the ASU forming three dimers
# RsiGCw+WhiGCw = biological target: T1, RsiGCw+WhiGCw (Conexibacter woesei, UniProt D3EZE5); test: fluorescence polarization; assay type: binding; conditions: 25 mM Tris-HCl pH 7.5, 150 mM NaCl, 25 °C, 1 nM probe; RsiG with WhiG; labelled compound
# T1 construct: gene Cwoe_3492; RsiG and WhiG coexpressed from pCOLADuet-1 in E. coli C41(DE3), His-tag on RsiG cut with thrombin; stoichiometry by analogy with the R. radiotolerans complex
# T1 sequence (D3EZE5 1-84): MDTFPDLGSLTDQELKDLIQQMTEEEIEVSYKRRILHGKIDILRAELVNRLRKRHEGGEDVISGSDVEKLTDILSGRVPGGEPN
# T1 sequence (UPI0011D1D740 1-268 partner): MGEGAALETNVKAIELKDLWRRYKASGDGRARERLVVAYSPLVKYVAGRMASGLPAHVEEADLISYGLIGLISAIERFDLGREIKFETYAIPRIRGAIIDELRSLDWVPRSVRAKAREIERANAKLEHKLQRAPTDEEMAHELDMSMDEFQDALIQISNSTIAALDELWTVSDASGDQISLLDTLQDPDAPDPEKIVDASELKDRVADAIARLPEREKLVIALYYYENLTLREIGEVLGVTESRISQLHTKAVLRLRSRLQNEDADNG
# RsiGCw = biological target: T2, RsiGCw (Conexibacter woesei, UniProt D3EZE5); test: fluorescence polarization; assay type: binding; conditions: 25 mM Tris-HCl pH 7.5, 150 mM NaCl, 25 °C, 1 nM probe; RsiG alone; labelled compound
# T2 construct: gene Cwoe_3492; full-length single-motif RsiG; pET15b, E. coli C41(DE3), His-tag cut with thrombin; homodimer (two-hybrid)
# T2 sequence (D3EZE5 1-84): T1 sequence (D3EZE5 1-84)
# RsiGRr = biological target: T3, RsiGRr (Rubrobacter radiotolerans, UniProt Z9BF25KB68); test: fluorescence polarization; assay type: binding; conditions: 25 mM Tris-HCl pH 7.5, 150 mM NaCl, 25 °C, 1 nM probe; RsiG alone; labelled compound
# T3 construct: full-length single-motif RsiG, 118 residues (a 27-106 construct was made for apo crystals only); pET15b, E. coli C41(DE3), His-tag cut with thrombin; homodimer
# T3 sequence (Z9BF25KB68 1-118): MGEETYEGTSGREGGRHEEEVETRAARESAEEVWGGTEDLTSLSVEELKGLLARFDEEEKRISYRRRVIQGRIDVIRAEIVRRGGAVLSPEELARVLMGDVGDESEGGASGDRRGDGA
# [2] = biological target: T4, RsiGRr+WhiGRr; Rr (RsiG)2–(c-di-GMP)2–WhiG complex (Rubrobacter radiotolerans, UniProt A0A023X3C8+Z9BF25KB68); test: fluorescence polarization; assay type: binding; conditions: 25 mM Tris-HCl pH 7.5, 150 mM NaCl, 25 °C, 1 nM probe; RsiG with WhiG; labelled compound
# T4 construct: RsiG and WhiG coexpressed from pCOLADuet-1 in E. coli C41(DE3), His-tag on RsiG cut with thrombin; complex of RsiG homodimer and one WhiG
# T4 sequence (Z9BF25KB68 1-118): T3 sequence (Z9BF25KB68 1-118)
# T4 sequence (A0A023X3C8 1-273): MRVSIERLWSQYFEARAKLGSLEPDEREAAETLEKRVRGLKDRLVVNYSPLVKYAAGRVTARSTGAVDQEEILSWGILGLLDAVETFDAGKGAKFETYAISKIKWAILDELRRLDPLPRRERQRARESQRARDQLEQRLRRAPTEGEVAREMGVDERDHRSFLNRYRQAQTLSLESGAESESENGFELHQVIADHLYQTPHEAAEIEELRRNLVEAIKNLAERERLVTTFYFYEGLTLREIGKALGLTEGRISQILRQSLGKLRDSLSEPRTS
# [3] = biological target: RsiGRr(27-106) (Rubrobacter radiotolerans); test: crystal structure; apo RsiGRr crystal form 2; 0.1 sodium acetate pH 4.5, 2.5 M NaCl, 0.2 M lithium sulfate, 0.1 M MgCl2; molecular replacement, 2.55 Å
# [4] = biological target: RsiG from Rubrobacter radiotolerans (RsiGRr), co-purified with WhiGRr, His-tag cleaved (Rubrobacter radiotolerans); test: crystal structure; Rr (RsiG)2-(c-di-GMP)2-WhiG complex, 2.93 Å; 0.1 M Tris pH 8.0, 0.2 M MgCl2, 23% PEG 3350; c-di-GMP copurified from E. coli, none added
substance,measurement,setting,value
"RsiGRr(27-106) (L52M-I69M), selenomethionine substituted (domain or fragment)",stoichiometry N,[1],2
2′-O-(6-[Fluoresceinyl]aminohexylcarbamoyl)-cyclic diguanosine monophosphate [2′-Fluo-AHC–c-di-GMP],Kd,RsiGCw+WhiGCw,1.7 ± 0.3 µM
same,Kd,RsiGCw,25 ± 2 µM
same,Kd,RsiGRr,12 ± 3 µM
same,Kd,[2],0.9 ± 0.05 µM
RsiGRr(27-106) (domain or fragment),stoichiometry N,[3],2
"RsiG from Rubrobacter radiotolerans (RsiGRr), co-purified with WhiGRr, His-tag cleaved (natural protein)",stoichiometry N,[4],2

# Source: paper PMC8325347, “Evolution of a σ–(c-di-GMP)–anti-σ switch” (Proceedings of the National Academy of Sciences of the …, 2021)
